Source: US9783505B2, “Substituted diaminopyrimidyl compounds, compositions thereof, and methods of treatment therewith” (Signal Pharmaceuticals, LLC, priority 2013, dated 2017)

Key:
PKC delta = biological target: T1, PKC delta (Homo sapiens, UniProt Q05655); test: PKC delta Assay (384-well time resolved fluorescence, IMAP TR-FRET); format: biochemical; conditions: selectivity for PKC-theta over PKC-delta
T1 construct: purchased Invitrogen
Description: PKC delta Assay. A 384-well time resolved fluorescence assay was used to monitor PKC delta activity. The PKC delta assay was run in the following assay buffer: 50 mM HEPES pH 7.6, 10 mM MgCl2, 1 mM DTT, 0.01% Triton X-100, 0.01% BSA and 0.1 mM EDTA. To initiate the reaction, 200 nM of Fam-labeled S6-derived peptide (Molecular Devices) and 10 μM of ATP were mixed with 1.5 nM of PKC delta (Invitrogen), for a total assay volume of 25 μL in each well. The assay was incubated at room temperature for 2 hours and terminated using a 60 μL/well mixture of Detection Binding Solution: 70% IMAP Progressive Binding Buffer A, 30% IMAP Progressive Binding Buffer B, 1:600 Progressive Binding Reagent, and 1:400 TR-FRET Tb Donor (Molecular Devices). The assay plates were then incubated overnight at room temperature and read on the Perkin-Elmer Envision Reader.

His-PKC-theta = biological target: T2, His-PKC-theta (Homo sapiens, UniProt Q04759); test: PKC-theta Assay (384-well time resolved fluorescence, IMAP TR-FRET); format: biochemical; conditions: read-out: Act. Level (IC50 in the PKC-theta Assay)
T2 construct: His; purchased Invitrogen
T2 sequence (Q04759 whole entry): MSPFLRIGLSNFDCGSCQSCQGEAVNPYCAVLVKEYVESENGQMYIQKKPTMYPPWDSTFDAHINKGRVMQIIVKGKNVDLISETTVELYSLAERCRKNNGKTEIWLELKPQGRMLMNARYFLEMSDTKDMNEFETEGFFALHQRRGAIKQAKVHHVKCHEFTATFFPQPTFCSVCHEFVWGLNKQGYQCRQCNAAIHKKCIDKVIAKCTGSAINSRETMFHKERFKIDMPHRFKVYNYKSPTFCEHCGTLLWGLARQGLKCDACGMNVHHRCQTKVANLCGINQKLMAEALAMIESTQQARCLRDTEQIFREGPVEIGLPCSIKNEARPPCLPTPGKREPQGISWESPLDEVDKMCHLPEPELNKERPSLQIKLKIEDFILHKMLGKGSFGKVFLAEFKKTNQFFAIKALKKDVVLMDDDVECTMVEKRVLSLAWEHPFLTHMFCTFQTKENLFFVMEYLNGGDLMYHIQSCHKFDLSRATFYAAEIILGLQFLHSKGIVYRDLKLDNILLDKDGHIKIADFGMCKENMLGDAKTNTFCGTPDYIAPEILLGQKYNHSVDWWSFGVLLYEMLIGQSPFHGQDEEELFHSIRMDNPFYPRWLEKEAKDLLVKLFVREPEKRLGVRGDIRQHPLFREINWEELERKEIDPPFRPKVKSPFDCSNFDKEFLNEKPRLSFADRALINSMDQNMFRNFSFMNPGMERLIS
Outline: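 Enzyme at 142 pM phosphorylated 200 nM Fam-S6 peptide with 10 μM ATP in 50 mM HEPES pH 7.6, 10 mM MgCl2, 1 mM DTT for 2 h at room temperature. Product was detected after overnight incubation with IMAP binding reagent and Tb donor by time-resolved FRET.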

T1 sequence (Q05655 whole entry): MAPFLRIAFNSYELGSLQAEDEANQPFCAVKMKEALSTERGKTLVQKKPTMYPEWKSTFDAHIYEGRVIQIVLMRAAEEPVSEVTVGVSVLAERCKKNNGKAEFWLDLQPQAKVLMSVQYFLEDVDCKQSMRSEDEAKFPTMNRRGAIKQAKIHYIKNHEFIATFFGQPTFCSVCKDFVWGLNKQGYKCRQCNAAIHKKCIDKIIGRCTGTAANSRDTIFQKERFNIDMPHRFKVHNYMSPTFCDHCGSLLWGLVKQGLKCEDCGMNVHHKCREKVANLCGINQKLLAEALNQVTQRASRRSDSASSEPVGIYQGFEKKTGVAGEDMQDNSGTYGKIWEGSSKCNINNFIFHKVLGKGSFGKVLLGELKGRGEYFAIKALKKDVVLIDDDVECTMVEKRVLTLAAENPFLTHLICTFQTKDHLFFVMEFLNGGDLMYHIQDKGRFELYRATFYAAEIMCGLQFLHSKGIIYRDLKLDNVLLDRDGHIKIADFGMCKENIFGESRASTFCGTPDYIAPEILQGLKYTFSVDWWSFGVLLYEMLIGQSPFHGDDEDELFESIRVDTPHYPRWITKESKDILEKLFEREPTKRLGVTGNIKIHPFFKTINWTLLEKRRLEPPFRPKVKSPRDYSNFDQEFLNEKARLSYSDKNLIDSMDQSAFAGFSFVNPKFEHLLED

Q: Which “Sel. Level (ratio of IC50 PKC-delta/IC50 PKC-theta)” value (PKC delta) does the source give for `COCc1noc(CCNc2ncc(C#N)c(N[C@@H]3CC[C@H](O)C(C)(C)C3)n2)n1` [Cmpd 199] here?
A: H (selectivity level of 5-fold or less (selectivity level H))

Q: And the IC50 (His-PKC-theta)?
A: 2000 to 10000 nM

Q: Which “Sel. Level (ratio of IC50 PKC-delta/IC50 PKC-theta)” value (PKC delta) does the source give for `CC1(C)C[C@H](Nc2nc(NCCc3cc4ccccc4[nH]3)ncc2C#N)CC[C@@H]1O` [Cmpd 200] here?
A: G (selectivity between 5- and 20-fold (selectivity level G))

Q: And the IC50 (His-PKC-theta)?
A: 800 to 2000 nM

Q: For `CC1(C)C[C@H](Nc2nc(NCCn3cccc3)ncc2C#N)CC[C@@H]1O` [Cmpd 201], which “Sel. Level (ratio of IC50 PKC-delta/IC50 PKC-theta)” value (PKC delta) is on record?
A: F (selectivity of between 20- and 100-fold (selectivity level F))

Q: And the IC50 (His-PKC-theta)?
A: 100 to 800 nM

Q: `CC1(C)C[C@H](Nc2nc(NCCn3ccc4ccccc43)ncc2C#N)CC[C@@H]1O` [Cmpd 202] was tested. Which “Sel. Level (ratio of IC50 PKC-delta/IC50 PKC-theta)” value (PKC delta) did it give?
A: H (selectivity level of 5-fold or less (selectivity level H))

Q: What about the IC50 (His-PKC-theta) of the same compound?
A: 2000 to 10000 nM

Q: Which results are given for `CC1(C)C[C@H](Nc2nc(NCCc3c[nH]c4ccccc34)ncc2C#N)CC[C@@H]1O` [Cmpd 203]?
A: Sel. Level (ratio of IC50 PKC-delta/IC50 PKC-theta) (PKC delta): F (selectivity of between 20- and 100-fold (selectivity level F)); IC50 (His-PKC-theta): < 100 nM

Q: Which “Sel. Level (ratio of IC50 PKC-delta/IC50 PKC-theta)” value (PKC delta) does the source give for `CC1(C)C[C@H](Nc2nc(NCCc3c[nH]c4ncccc34)ncc2C#N)CC[C@@H]1O` [Cmpd 204] here?
A: F (selectivity of between 20- and 100-fold (selectivity level F))

Q: What about the IC50 (His-PKC-theta) of the same compound?
A: 100 to 800 nM

Q: Which results are given for `CC1(C)C[C@H](Nc2nc(NCCc3nc4ccccc4o3)ncc2C#N)CC[C@@H]1O` [Cmpd 205]?
A: Sel. Level (ratio of IC50 PKC-delta/IC50 PKC-theta) (PKC delta): H (selectivity level of 5-fold or less (selectivity level H)); IC50 (His-PKC-theta): 2000 to 10000 nM

Q: How did the “Sel. Level (ratio of IC50 PKC-delta/IC50 PKC-theta)” value (PKC delta) turn out when `Cc1cc2ccccc2n1CCNc1ncc(C#N)c(N[C@@H]2CC[C@H](O)C(C)(C)C2)n1` [Cmpd 206] was run?
A: F (selectivity of between 20- and 100-fold (selectivity level F))

Q: What about the IC50 (His-PKC-theta) of the same compound?
A: 100 to 800 nM

Q: `Cc1nc2ccccc2n1CCNc1ncc(C#N)c(N[C@@H]2CC[C@H](O)C(C)(C)C2)n1` [Cmpd 207] was tested. Which “Sel. Level (ratio of IC50 PKC-delta/IC50 PKC-theta)” value (PKC delta) did it give?
A: H (selectivity level of 5-fold or less (selectivity level H))

Q: What about the IC50 (His-PKC-theta) of the same compound?
A: 2000 to 10000 nM

Q: `CC1(C)C[C@H](Nc2nc(NCCc3cn[nH]c3)ncc2C#N)CC[C@@H]1O` [Cmpd 208] was tested. Which “Sel. Level (ratio of IC50 PKC-delta/IC50 PKC-theta)” value (PKC delta) did it give?
A: G (selectivity between 5- and 20-fold (selectivity level G))

Q: And the IC50 (His-PKC-theta)?
A: 100 to 800 nM

Q: Which results are given for `CC1(C)C[C@H](Nc2nc(NCCn3ccc(-c4ccccc4)n3)ncc2C#N)CC[C@@H]1O` [Cmpd 209]?
A: Sel. Level (ratio of IC50 PKC-delta/IC50 PKC-theta) (PKC delta): H (selectivity level of 5-fold or less (selectivity level H)); IC50 (His-PKC-theta): 2000 to 10000 nM

Q: Which “Sel. Level (ratio of IC50 PKC-delta/IC50 PKC-theta)” value (PKC delta) does the source give for `Cc1cc(C(F)(F)F)nn1CCNc1ncc(C#N)c(N[C@@H]2CC[C@H](O)C(C)(C)C2)n1` [Cmpd 210] here?
A: G (selectivity between 5- and 20-fold (selectivity level G))

Q: What about the IC50 (His-PKC-theta) of the same compound?
A: 800 to 2000 nM

Q: How did the “Sel. Level (ratio of IC50 PKC-delta/IC50 PKC-theta)” value (PKC delta) turn out when `CC1(C)C[C@H](Nc2nc(NCCn3cccn3)ncc2C#N)CC[C@@H]1O` [Cmpd 211] was run?
A: H (selectivity level of 5-fold or less (selectivity level H))

Q: And the IC50 (His-PKC-theta)?
A: 2000 to 10000 nM

Q: What does the source list for `Cc1cnn(CCNc2ncc(C#N)c(N[C@@H]3CC[C@H](O)C(C)(C)C3)n2)c1` [Cmpd 212]?
A: Sel. Level (ratio of IC50 PKC-delta/IC50 PKC-theta) (PKC delta): H (selectivity level of 5-fold or less (selectivity level H)); IC50 (His-PKC-theta): 2000 to 10000 nM

Q: For `CC1(C)C[C@H](Nc2nc(NCCn3cc(C#N)cn3)ncc2C#N)CC[C@@H]1O` [Cmpd 213], which “Sel. Level (ratio of IC50 PKC-delta/IC50 PKC-theta)” value (PKC delta) is on record?
A: H (selectivity level of 5-fold or less (selectivity level H))

Q: And the IC50 (His-PKC-theta)?
A: 2000 to 10000 nM

Q: Which results are given for `Cc1cccnc1CCNc1ncc(C#N)c(N[C@@H]2CC[C@H](O)C(C)(C)C2)n1` [Cmpd 214]?
A: Sel. Level (ratio of IC50 PKC-delta/IC50 PKC-theta) (PKC delta): H (selectivity level of 5-fold or less (selectivity level H)); IC50 (His-PKC-theta): 2000 to 10000 nM

Q: Which results are given for `COc1cccc(CCNc2ncc(C#N)c(N[C@@H]3CC[C@H](O)C(C)(C)C3)n2)n1` [Cmpd 215]?
A: Sel. Level (ratio of IC50 PKC-delta/IC50 PKC-theta) (PKC delta): G (selectivity between 5- and 20-fold (selectivity level G)); IC50 (His-PKC-theta): 800 to 2000 nM

Q: How did the “Sel. Level (ratio of IC50 PKC-delta/IC50 PKC-theta)” value (PKC delta) turn out when `CC1(C)C[C@H](Nc2nc(NCCc3ccn[nH]3)ncc2C#N)CC[C@@H]1O` [Cmpd 216] was run?
A: G (selectivity between 5- and 20-fold (selectivity level G))

Q: What about the IC50 (His-PKC-theta) of the same compound?
A: 800 to 2000 nM
